One series has as its target T1, human EGF-R (Homo sapiens, UniProt P00533).
T1 construct: expressed in transfected cells; host or cells: F/L-HERc cells (murine IL-3-dependent FDC-P1 line transduced with an LXSN retroviral vector carrying human EGF-R cDNA; packaging line GP+E86)
Description: Inhibition of EGF-dependent proliferation of F/L-HERc cells (Cell Titer 96 assay). The format is cell-based. To be noted: F/L-HERc cells (murine IL-3-dependent line expressing human EGF-R), stimulated with EGF 20 ng/ml, 48 hours at 37° C. The text has this: A cell line of murine origin dependent on interleukin-3-(IL-3) which was genetically modified to express functional human EGF-R was used here. The proliferation of these cells known as F/L-HERc can therefore be stimulated either by murine IL-3 or by EGF (cf T. von Ruiden et al., EMBO J. 7, 2749-2756 (1988) and J. H. Pierce et al., Science 239, 628-631 (1988)).
The starting material used for the F/L-HERc cells was the cell line FDC-P1, the production of which has been described by T. M. Dexter et al., J. Exp. Med. 152. 1036-1047 (1980). Alternatively, however, other growth-factor-dependent cells may also be used (cf., e.g., J.H. Pierce et al., Science 239, 628-631 (1988); H. Shibuya et al., Cell 70, 57-67 (1992); and W. S. Alexander et al., EMBO J. 10, 3683-3691 (1991)). For expressing the human EGF-R cDNA (cf A. Ullrich et al., Nature 309, 418-425 (1984)) recombinant retroviruses were used as described by T. von Ruiden et al., EMBO J. 7, 2749-2756 (1988), except that the retroviral vector LXSN (cf A. D. Miller et al., BioTechniques 7, 980-990 (1989)) was used for the expression of the EGF-R cDNA and the line GP+E86 (cf D. Markowitz et al., J. Virol. 62, 1120-1124 (1988)) was used as the packaging cell.
The test was performed as follows:
F/L-HERc cells were cultivated in RPMI/1640 medium (BioWhittaker), supplemented with 10% fetal calf serum (FCS, Boehringer Mannheim), 2 mM glutamine (BioWhittaker), standard antibiotics and 20 ng/ml of human EGF (Promega), at 37° C. and 5% CO2. In order to investigate the inhibitory activity of the compounds according to the invention, 1.5×10^4 cells per well were cultivated in triplicate in 96-well plates in the above medium (200 μl), the cell proliferation being stimulated with either EGF (20 ng/ml) or murine IL-3. The IL-3 used was obtained from culture supernatants of the cell line X63/0 mIL-3 (cf H. Karasuyama et al., Eur. J. Immunol. 18, 97-104 (1988)). The compounds according to the invention were dissolved in 100% dimethylsulfoxide (DMSO) and added to the cultures in various dilutions, the maximum DMSO concentration being 1%. The cultures were incubated for 48 hours at 37° C.
In order to determine the inhibitory activity of the compounds according to the invention the relative cell number was measured in O.D. units using the Cell Titer 96™ Aqueous Non-Radioactive Cell Proliferation Assay (Promega). The relative cell number was calculated as a percentage of the control (F/LHERc cells without inhibitor) and the concentration of active substance which inhibits the proliferation of the cells by 50% (IC50) was derived therefrom.

T1 sequence (P00533 25-1210): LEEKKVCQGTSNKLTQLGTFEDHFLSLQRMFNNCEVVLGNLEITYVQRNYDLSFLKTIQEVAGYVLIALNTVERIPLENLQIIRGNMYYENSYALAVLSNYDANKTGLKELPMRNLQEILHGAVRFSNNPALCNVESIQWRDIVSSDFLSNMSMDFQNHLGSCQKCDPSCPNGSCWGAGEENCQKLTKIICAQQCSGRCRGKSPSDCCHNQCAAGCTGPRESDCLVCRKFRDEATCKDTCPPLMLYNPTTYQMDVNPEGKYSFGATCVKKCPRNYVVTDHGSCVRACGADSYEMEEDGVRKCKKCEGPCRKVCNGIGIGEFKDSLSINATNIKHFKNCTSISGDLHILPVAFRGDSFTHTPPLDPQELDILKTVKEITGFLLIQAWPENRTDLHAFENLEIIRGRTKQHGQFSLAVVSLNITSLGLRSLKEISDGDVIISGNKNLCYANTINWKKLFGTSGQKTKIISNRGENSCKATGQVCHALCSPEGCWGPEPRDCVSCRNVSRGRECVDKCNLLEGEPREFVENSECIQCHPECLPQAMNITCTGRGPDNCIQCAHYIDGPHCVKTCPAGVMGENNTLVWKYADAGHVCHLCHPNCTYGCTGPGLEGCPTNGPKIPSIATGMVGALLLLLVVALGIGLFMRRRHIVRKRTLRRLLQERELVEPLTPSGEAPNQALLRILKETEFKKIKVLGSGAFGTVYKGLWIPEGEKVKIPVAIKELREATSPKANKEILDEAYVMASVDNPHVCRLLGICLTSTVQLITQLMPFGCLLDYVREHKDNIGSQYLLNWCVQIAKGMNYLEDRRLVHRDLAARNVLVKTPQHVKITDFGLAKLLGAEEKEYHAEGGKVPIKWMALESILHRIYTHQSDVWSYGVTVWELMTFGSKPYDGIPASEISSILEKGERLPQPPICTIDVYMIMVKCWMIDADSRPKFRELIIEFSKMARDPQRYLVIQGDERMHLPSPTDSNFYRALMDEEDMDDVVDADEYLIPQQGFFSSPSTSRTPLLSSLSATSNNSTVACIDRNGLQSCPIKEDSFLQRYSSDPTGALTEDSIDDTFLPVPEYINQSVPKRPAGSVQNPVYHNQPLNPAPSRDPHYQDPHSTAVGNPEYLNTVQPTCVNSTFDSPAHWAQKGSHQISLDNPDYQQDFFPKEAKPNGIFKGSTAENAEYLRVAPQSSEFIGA

With `COC(=O)CCN(C)C1CCN(c2ncc3ncnc(Nc4ccc(F)c(Cl)c4)c3n2)CC1` [2(15), 4-[(3-chloro-4-fluorophenyl)amino]-6-(4-{N-[2-(methoxycarbonyl)ethyl]-N-methylamino}piperidin-1-yl)pyrimido[5,4-d]pyrimidine], half-maximal inhibition against human EGF-R (IC50) was put at 1760 nM.

For `COC(=O)CN(CC(=O)OC)C1CCC(N(C)c2ncc3ncnc(Nc4ccc(F)c(Cl)c4)c3n2)CC1` (stereo not drawn) [3(12), 4-[(3-chloro-4-fluorophenyl)amino]-6-[N-(trans-4-{N,N′-bis[(methoxycarbonyl)methyl]amino}cyclohex-1-yl)-N-methylamino]pyrimido[5,4-d]pyrimidine], the melting point – broadly, the temperature, or range, at which the solid turns liquid – was in the range of 162 to 164 °C. At human EGF-R, the IC50 (usually the concentration at which inhibition is half-maximal) is 103 nM.

`COC(=O)CN1CCCC(Nc2ncc3ncnc(Nc4cccc(Br)c4)c3n2)C1` (stereo not shown) [3(17), 4-[(3-bromophenyl)amino]-6-({1-[(methoxycarbonyl)methyl]piperidin-3-yl}amino)pyrimido[5,4-d]pyrimidine]: the IC50 at human EGF-R was 17 nM.

`CCOC(=O)CN1CCN(c2ncc3ncnc(Nc4ccc(F)c(Cl)c4)c3n2)CC1` [2(10), 4-[(3-chloro-4-fluorophenyl)amino]-6-[4-[(ethoxycarbonyl)methyl]piperazin-1-yl]pyrimido[5,4-d]pyrimidine]: the melting point was 179 to 182 °C. This compound also displayed an IC50 against human EGF-R of 2040 nM.

Compound `COC(=O)CN(C)CC1CCN(c2ncc3ncnc(Nc4ccc(F)c(Cl)c4)c3n2)CC1` [2(19), 4-[(3-chloro-4-fluorophenyl)amino]-6-[4-({N-[(methoxycarbonyl)methyl]-N-methylamino}methyl)piperidin-1-yl]pyrimido[5,4-d]pyrimidine] came in with an IC50 against human EGF-R of 129 nM.

The compound `COC(=O)CN(CC(=O)OC)[C@H]1CC[C@H](Nc2ncc3ncnc(Nc4ccc(F)c(Cl)c4)c3n2)CC1` [3(5), 4-[(3-chloro-4-fluorophenyl)amino]-6-[(trans-4-{N,N-bis-[(methoxycarbonyl)methyl]amino}cyclohex-1-yl)amino]pyrimido [5,4-d]pyrimidine] displayed an IC50 against human EGF-R of 20 nM.

`O=C1CN(C2CCC(Nc3ncc4ncnc(Nc5ccc(F)c(Cl)c5)c4n3)CC2)CCO1` (stereo not drawn) [Example 7, 4-[(3-chloro-4-fluorophenyl)amino]-6-{[trans-4-(2-oxomorpholin-4-yl)cvclohex-1-yl]amino}pyrimido[5,4-d]pyrimidine] returned a melting point of 202 to 204 °C. For the same compound, 122 nM corresponded to half-maximal inhibition on human EGF-R (IC50).

As to `CCOC(=O)CCN1CCC(N2CCN(c3ncc4ncnc(Nc5ccc(F)c(Cl)c5)c4n3)CC2)CC1` [2(12), 4-[(3-chloro-4-fluorophenyl)amino]-6-(4-{1-[2-(ethoxycarbonyl)ethyl]piperidin-4-yl}piperazin-1-yl)pyrimido[5,4-d]pyrimidine], the IC50 against human EGF-R is 810 nM.

At human EGF-R, `COC(=O)C(C(=O)OC)N1CCC(Nc2ncc3ncnc(Nc4ccc(F)c(Cl)c4)c3n2)CC1` [3(18)] displayed an IC50 of 40 nM.

`COC(=O)CN[C@H]1CC[C@H](Nc2ncc3ncnc(Nc4ccc(F)c(Cl)c4)c3n2)CC1` [3(10), 4-[(3-chloro-4-fluorophenyl)amino]-6-[(trans-4-{[(methoxycarbonyl)methyl]amino}cyclohex-1-yl)amino]pyrimido[5,4-d]pyrimidine] came in with an IC50 against human EGF-R of 16 nM.

As for `O=C(O)C1CCN(CCNc2ncc3ncnc(Nc4ccc(F)c(Cl)c4)c3n2)CC1` [1(10), 4-[(3-chloro-4-fluorophenyl)amino]-6-[2-(4-carboxypiperidin-1-yl)ethylamino]pyrimido [5,4-d]pyrimidine], the melting point was 190 °C (dec.). The compound further yielded an IC50 against human EGF-R of 2510 nM.

As for `O=C(O)CN1CCC(CCNc2ncc3ncnc(Nc4ccc(F)c(Cl)c4)c3n2)CC1` [1(9), 4-[(3-chloro-4-fluorophenyl)amino]-6-{2-[1-(carboxymethyl)piperidin-4-yl]ethylamino}pyrimido[5,4-d]pyrimidine], the melting point is 246 to 249 °C (dec.). Further, on human EGF-R, the IC50 turned out to be 820 nM.

The compound `COC(=O)CN1CCC(Nc2ncc3ncnc(Nc4ccc5[nH]ccc5c4)c3n2)CC1` [2(28), 4-[(indol-5-yl)amino]-6-({1-[(methoxycarbonyl)methyl]piperidin-4-yl}amino)pyrimido [5,4-d]pyrimidine] displayed a melting point of 167 °C. Moreover, on human EGF-R, half-maximal inhibition (IC50) required 26 nM.

With `O=C(O)CCN1CCC(N2CCN(c3ncc4ncnc(Nc5ccc(F)c(Cl)c5)c4n3)CC2)CC1` [1(8), 4-[(3-chloro-4-fluorophenyl)amino]-6-{4-[1-(2-carboxyethyl)piperidin-4-yl]piperazin-1-yl}pyrimido[5,4-d]pyrimidine], the melting point is 213 °C (dec.). In addition, the IC50 against human EGF-R is 1450 nM.

The compound `COC(=O)CN1CCC(Nc2ncc3ncnc(Nc4cccc(Cl)c4)c3n2)CC1` [2(23), 4-[(3-chlorophenyl)amino]-6-({1-[(methoxycarbonyl)methyl]piperidin-4-yl}amino)pyrimido[5,4-d]pyrimidine] registered a melting point of 129 °C. This compound gave an IC50 at human EGF-R of 25 nM.

For the compound `CCOC(=O)CN(CC(=O)OCC)[C@H]1CC[C@H](Nc2ncc3ncnc(Nc4ccc(F)c(Cl)c4)c3n2)CC1` [3(4), 4-[(3-chloro-4-fluorophenyl)amino]-6-[(trans-4-{N,N-bis-[(ethoxycarbonyl)methyl]amino}cyclohex-1-yl)amino]pyrimido[5,4-d]pyrimidine], the concentration for half-maximal inhibition (IC50) on human EGF-R stood at 58 nM.

`COC(=O)C(C(=O)OC)N1CCC(Nc2ncc3ncnc(Nc4cccc(Br)c4)c3n2)CC1` [3(16)] returned an IC50 on human EGF-R of 20 nM.

Regarding `CCOC(=O)CN1CCC(CCNc2ncc3ncnc(Nc4ccc(F)c(Cl)c4)c3n2)CC1` [2(13), 4-[(3-chloro-4-fluorophenyl)amino]-6-(2-{1-[(ethoxycarbonyl)methyl]piperidin-4-yl}ethylamino)pyrimido[5,4-d]pyrimidine], the melting point fell in the range of 128 to 130 °C. The same compound displayed an IC50 on human EGF-R of 1030 nM.

On to `CN(CCC(=O)O)C1CCN(c2ncc3ncnc(Nc4ccc(F)c(Cl)c4)c3n2)CC1` [1(11), 4-[(3-chloro-4-fluorophenyl)amino]-6-[4-[N-(2-carboxyethyl)-N-methylamino]piperidin-1-yl]pyrimido[5,4-d]pyrimidine], for which the melting point was 139 to 165 °C (dec.). For the same compound, 2320 nM corresponded to half-maximal inhibition against human EGF-R (IC50).

The compound `COC(=O)CN1CCC(Nc2ncc3ncnc(Nc4cc(Cl)c(N)c(Cl)c4)c3n2)CC1` [2(26), 4-[(4-amino-3,5-dichlorophenyl)amino]-6-({1-[(methoxycarbonyl)methyl]piperidin-4-yl}amino)pyrimido[5,4-d]pyrimidine] came in with a melting point of 218 °C. This compound had an IC50 on human EGF-R of 21 nM.

`O=C(O)CN1CCC(Nc2ncc3ncnc(Nc4ccc(F)c(Cl)c4)c3n2)CC1` [Example 1, 4-[(3-chloro-4-fluorophenyl)amino]-6-{ [1-(carboxymethyl)piperidin-4-yl]amino}pyrimido[5.4-d]pyrimidine] displayed a melting point of 202 to 205 °C. Moreover, 840 nM corresponded to half-maximal inhibition on human EGF-R (IC50).

In the case of `COC(=O)CN(C)[C@H]1CC[C@H](Nc2ncc3ncnc(Nc4ccc(F)c(Cl)c4)c3n2)CC1` [2(7), 4-[(3-chloro-4-fluorophenyl)amino]-6-[(trans-4-{N-[(methoxycarbonyl)methyl]-N-methylamino}cyclohex-1-yl)amino]pyrimido[5,4-d]pyrimidine], the melting point was 131 to 134 °C. For the same compound, the concentration for half-maximal inhibition (IC50) against human EGF-R was determined as 60 nM.

Take `CCOP(C)(=O)CN1CCC(Nc2ncc3ncnc(Nc4cccc(Br)c4)c3n2)CC1` (stereo not shown) [4(2), 4-[(3-bromophenyl)amino]-6-[(1-{[(ethoxy)(methyl)phosphoryl]methyl}piperidin-4-yl)amino]pyrimido [5,4-d]pyrimidine]: half-maximal inhibition against human EGF-R (IC50) was put at 40 nM.

At human EGF-R, `CCOP(=O)(CN1CCC(Nc2ncc3ncnc(Nc4cccc(Br)c4)c3n2)CC1)OCC` [4(1), 4-[(3-bromophenyl)amino]-6-({1-[(diethoxyphosphoryl)methyl]piperidin-4-yl}amino)pyrimido[5,4-d]pyrimidine] had an IC50 of 40 nM.

Source of the values: patent US20020082420A1, “Bicyclic heterocycles, pharmaceutical compositions containing them, their use, and processes for preparing them” (priority 2000, published 2002).
